From US9399666B2, “Inhibiting interaction between the HIF-1ALPHA and p300/CBP with hydrogen bond surrogate-based helices” (New York University, priority 2008, dated 2016)
Where two headings read alike, the source gives them in different places. Peptide text beside a SMILES is read from it.

Tests used:
MDA-MB-231-HRE-Luc cells = type: cell-based
Description: MDA-MB-231-HRE-Luc cells were maintained in high glucose Dulbecco's Modified Eagle's Medium (“DMEM”) supplemented with 10% fetal bovine serum and 0.4 g/L Geneticin (G418 sulfate, RPI Corporation). Cells were plated in 24-well dishes (BD Falcon) at a density of […] using 1 mL of a 6.5×10^4 cell/mL suspension. […] Cells were incubated for 6 hours at 37° C. in a humidified atmosphere with 5% CO2. Hypoxia was induced by adding desferoxamine mesylate (DFO, Sigma) to a final concentration of 300 μM, and cells were incubated for an additional 18 hours. Whole cell lysates were isolated by washing the cells twice with ice cold PBS and then adding 150 μL of Cell Culture Lysis Reagent (“CCLR,” Promega). Lysate was collected, centrifuged at 13,000 rpm at 4° C., aliquoted, and stored at −80° C. Luciferase assays were conducted according to the manufacturer's instructions (Promega) using a Turner TD-20e Luminometer. Relative light intensity measurements were normalized by performing a Bradford assay to determine the protein content of the lysate used in the luciferase assay. Briefly, 50 μL of cell lysate/luciferase assay reagent mix was added to 200 μL of Bradford reagent and 750 μL of Millipore water in a 1.5 mL cuvette. Protein standards were created in the range of 1 μg/mL to 10 μg/mL with the appropriate amount of a 1 mg/mL BSA solution. Absorbance was measured at 595 nm using a DU-800 spectrophotometer. The experiments were carried out in triplicate with the error bars calculated as standard error of the mean.

p300 = p300 (Homo sapiens, UniProt Q09472); test: Affinity for p300 by isothermal titration calorimetry; type: binding; details: for Kd: isothermal titration calorimetry, p300, read-out: Kd (ITC); for Affinity for p300 (in words): ITC
Description: Helix αA of HIF-1α C-TAD, shown in FIG. 1A and FIG. 1C, is critical for the interaction between the CH1 domain and HIF-1α, because mutation of its residues or hydroxylation of Asn803 is known to disrupt this complex and inhibit HIF-1α mediated transcription (Freedman et al., “Structural Basis for Recruitment of CBP/p300 by Hypoxia-inducible Factor-1α,” Proc. Nat'l Acad. Sci. USA 99:5367-72 (2002); Dames et al., “Structural Basis for Hif-1α/CBP Recognition in the Cellular Hypoxic Response,” Proc. Nat'1 Acad. Sci. USA 99:5271-6 (2002). Development of HBS helices as potential inhibitors of VEGF transcription was begun by mimicking the aA helix region of HIF-1. This helix consists of eight residues, […] (SEQ ID NO: 111), and features three residues, Asp-Cys-Glu, critical for binding with p300/CBP. Several linear peptides and their HBS α-helix analogs were designed to gauge the potential of these molecules to inhibit VEGF transcription in cell culture. Each unconstrained peptide and HBS helix was synthesized using the procedures described in (Dimartino et al., “Solid-phase Synthesis of Hydrogen-bond Surrogate-derived α-Helices,” Org. Lett. 7:2389-92 (2005); Chapman & Arora, “Optimized Synthesis of Hydrogen-bond Surrogate Helices: Surprising Effects of Microwave Heating on the Activity of Grubbs Catalysts,” Org. Lett. 8:5825-8 (2006)). The percent helicity of each peptide was determined using circular dichroism spectroscopy in 10 mM phosphate buffered saline as described in (Wang et al., “Evaluation of Biologically Relevant Short α-Helices Stabilized by a Main-chain Hydrogen-bond Surrogate,” J. Am. Chem. Soc. 128:9248-56 (2006)). The affinity of each peptide for p300 was measured by isothermal titration calorimetry analysis (Wiseman et al., “Rapid Measurement of Binding Constants and Heats of Binding Using a New Titration calorimeter,” Anal. Biochem. 179:131-7 (1989); Freire et al., “Isothermal Titration calorimetry,” Anal. Chem. 62:A950-A959 (1990); Chervenak & Toone, “Calorimetric Analysis of the Binding of Lectins with Overlapping Carhohydrate-binding Ligand Specificities,” Biochemistry 34:5685-95 (1995); Aki et al., “Competitive Binding of Drugs to the Multiple Binding Sites on Human Serum Albumin. A calorimetric Study,” J Thermal Anal. calorim. 57:36170 (1999); Graziano et al., “Linkage of Proton Binding to the Thermal Unfolding of Sso7d from the Hyperthermophilic Archaebacterium Sulfolobus solfataricus,” Int'l J. Biol. Macromolecules 26:45-53 (1999); Pluschke & Mutz, “Use of Isothermal Titration calorimetry in the Development of Molecularly Defined Vaccines,” J Thermal Anal. calorim. 57:377-88 (1999); Corbell et al., “A Comparison of Biological and calorimetric Analyses of Multivalent Glycodendrimer Ligands for Concanavalin A,” Tetrahedron-Asymmetry 11:95-111 (2000)). The ability of each peptide to downregulate VEGF transcription in cell culture was evaluated by […] quantitative RT-PCR, as described above. The cytotoxicity of each peptide was determined by monitoring cellular growth and population doubling in the presence of individual peptides at 1μM concentration.

circular dichroism = details: 10 mM phosphate buffered saline (par. 0128, each peptide; pH given only for 22 and 25, Fig 6B), pH 7.4, ns °C
[1] = Percent helicity by circular dichroism spectroscopy; type: physicochemical; details: 10 mM phosphate buffered saline
Description: Helix αA of HIF-1α C-TAD, shown in FIG. 1A and FIG. 1C, is critical for the interaction between the CH1 domain and HIF-1α, because mutation of its residues or hydroxylation of Asn803 is known to disrupt this complex and inhibit HIF-1α mediated transcription (Freedman et al., “Structural Basis for Recruitment of CBP/p300 by Hypoxia-inducible Factor-1α,” Proc. Nat'l Acad. Sci. USA 99:5367-72 (2002); Dames et al., “Structural Basis for Hif-1α/CBP Recognition in the Cellular Hypoxic Response,” Proc. Nat'1 Acad. Sci. USA 99:5271-6 (2002). Development of HBS helices as potential inhibitors of VEGF transcription was begun by mimicking the aA helix region of HIF-1. This helix consists of eight residues, […] (SEQ ID NO: 111), and features three residues, Asp-Cys-Glu, critical for binding with p300/CBP. Several linear peptides and their HBS α-helix analogs were designed to gauge the potential of these molecules to inhibit VEGF transcription in cell culture. Each unconstrained peptide and HBS helix was synthesized using the procedures described in (Dimartino et al., “Solid-phase Synthesis of Hydrogen-bond Surrogate-derived α-Helices,” Org. Lett. 7:2389-92 (2005); Chapman & Arora, “Optimized Synthesis of Hydrogen-bond Surrogate Helices: Surprising Effects of Microwave Heating on the Activity of Grubbs Catalysts,” Org. Lett. 8:5825-8 (2006)). The percent helicity of each peptide was determined using circular dichroism spectroscopy in 10 mM phosphate buffered saline as described in (Wang et al., “Evaluation of Biologically Relevant Short α-Helices Stabilized by a Main-chain Hydrogen-bond Surrogate,” J. Am. Chem. Soc. 128:9248-56 (2006)). The affinity of each peptide for p300 was measured by isothermal titration calorimetry analysis (Wiseman et al., “Rapid Measurement of Binding Constants and Heats of Binding Using a New Titration calorimeter,” Anal. Biochem. 179:131-7 (1989); Freire et al., “Isothermal Titration calorimetry,” Anal. Chem. 62:A950-A959 (1990); Chervenak & Toone, “Calorimetric Analysis of the Binding of Lectins with Overlapping Carhohydrate-binding Ligand Specificities,” Biochemistry 34:5685-95 (1995); Aki et al., “Competitive Binding of Drugs to the Multiple Binding Sites on Human Serum Albumin. A calorimetric Study,” J Thermal Anal. calorim. […] The ability of each peptide to downregulate VEGF transcription in cell culture was evaluated by […] quantitative RT-PCR, as described above. The cytotoxicity of each peptide was determined by monitoring cellular growth and population doubling in the presence of individual peptides at 1μM concentration.

Row | Compound | Kd (p300) [µM] | Affinity for p300 (in words) (p300) | % Helicity [1] [%] | % Transcription inhibition in cell culture (Luc) (MDA-MB-231-HRE-Luc cells; 1000 nM) | helicity (circular dichroism) [%] | Inhibition of VEGF transcription in cell culture (in words) (MDA-MB-231-HRE-Luc cells) | % Transcription inhibition in cell culture (Luc) (MDA-MB-231-HRE-Luc cells; luciferase assay, 1 μM peptide) [%]
1 | CC(C)[C@H](NC(=O)[C@H](CCC(=O)O)NC(=O)[C@H](CS)NC(=O)[C@H](CC(=O)O)NC(=O)[C@H](Cc1ccc(O)cc1)N1CC=CCCC(=O)N[C@@H]([C@@H](C)O)C(=O)N[C@@H](C)C1=O)C(=O)N[C@@H](CC(N)=O)C(=O)N[C@@H](C)C(N)=O [Compound 20] | 0.54 |  |  | 0 ± 5 (Luc) % | 44 |  | 
2 | CC(C)[C@H](NC(=O)[C@H](CCC(=O)O)NC(=O)[C@@H](NC(=O)[C@H](CC(=O)O)NC(=O)[C@H](Cc1ccc(O)cc1)N1CC=CCCC(=O)N[C@@H]([C@@H](C)O)C(=O)N[C@@H](C)C1=O)C(C)C)C(=O)N[C@@H](CC(N)=O)C(=O)N[C@@H](C)C(N)=O [Compound 21] | 0.69 ± 0.06 |  |  |  | 16 |  | 
3 | C[C@H](NC(=O)[C@H](CC(N)=O)NC(=O)[C@H](Cc1ccc(O)cc1)NC(=O)[C@H](CCC(=O)O)NC(=O)[C@H](CS)NC(=O)[C@H](CC(=O)O)NC(=O)[C@H](C)N1CC=CCCC(=O)N[C@@H]([C@@H](C)O)C(=O)N[C@@H](C)C1=O)C(=O)N[C@@H](CCCNC(=N)N)C(N)=O [Compound 22] | 0.42 ± 0.035 |  |  |  | 53 |  | 

The next lines start with results.

Row | Kd (p300) [µM] | Affinity for p300 (in words) (p300) | % Helicity [1] [%] | Compound | % Transcription inhibition in cell culture (Luc) (MDA-MB-231-HRE-Luc cells; 1000 nM) | helicity (circular dichroism) [%] | Inhibition of VEGF transcription in cell culture (in words) (MDA-MB-231-HRE-Luc cells) | % Transcription inhibition in cell culture (Luc) (MDA-MB-231-HRE-Luc cells; luciferase assay, 1 μM peptide) [%]
4 |  | bound p300 with significant affinities | 14 | CC(=O)N[C@H](C(=O)N[C@@H](CO)C(=O)N[C@@H](Cc1ccc(O)cc1)C(=O)N[C@@H](CC(=O)O)C(=O)N[C@@H](CS)C(=O)N[C@@H](CCC(=O)O)C(=O)N[C@H](C(=O)N[C@@H](CC(N)=O)C(=O)N[C@@H](C)C(N)=O)C(C)C)[C@@H](C)O [Compound 23] (Ac-TSYDCEVNA-NH2) |  | 14 | failed to inhibit VEGF transcription in cell culture | 10 ± 5
5 |  | bound p300 with significant affinities | 15 | CC(=O)N[C@H](C(=O)N[C@@H](C)C(=O)N[C@@H](Cc1ccc(O)cc1)C(=O)N[C@@H](CC(=O)O)C(=O)N[C@@H](CS)C(=O)N[C@@H](CCC(=O)O)C(=O)N[C@H](C(=O)N[C@@H](CC(N)=O)C(=O)N[C@@H](C)C(N)=O)C(C)C)[C@@H](C)O [Compound 24] (Ac-TAYDCEVNA-NH2) |  | 15 | failed to inhibit VEGF transcription in cell culture | 15 ± 5
